Values joined by “and” are separate entries in the source; they are usually repeats but may differ in a detail not shown here. Equal entries are not always repeated. Structures can show the parent of a compound that is named as a salt. Where two headings read alike, the source gives them in different places.
Columns and labels:
[1] = quoted for comparison of basicity; no reference given; cited from earlier work
σ1 receptor = conditions: read-out: EC50, functional agonism of σ1 receptor-mediated calcium flux; cited from earlier work
σ2R [2] = conditions: cited from earlier work
σ2 receptor = conditions: cited from earlier work
H3R = conditions: Figure 1, clinically evaluated H3R antagonists; cited from earlier work
σ1R [3] = conditions: cited from earlier work
[4] = target: T1, human recombinant histamine H3R (Homo sapiens, UniProt Q9Y5N1); test: hH3R radioligand depletion binding assay ([3H]Nα-methylhistamine); conditions: mean [CI 95%]; HEK293 cells; data not published yet
T1 construct: expressed in transfected cells

female CD1 mice = test: loperamide-induced antinociception, paw pressure struggle response latency; type: in vivo; conditions: for functional character at σ1 receptor deduced in vivo: from potentiation of loperamide antinociception and reversal by PRE-084; for effect on loperamide-induced antinociception: injected paw; for effect alone on struggle response latency to mechanical stimulus: 450 g paw pressure, without loperamide
hH4R = target: T2, hH4R (Homo sapiens, UniProt Q9H3N8); test: hH4R radioligand binding ([3H]UR-PI294); conditions: HEK293T cells; oxalate form
T2 construct: SP (signal peptide) (N); expressed in transfected cells
Procedure: (§1) Compounds (as oxalate salts) were tested in H3R in vitro binding studies, using methods described previously.[47],[48] […] Radioligand binding experiments at the H1R, H2R, and H4R were performed as previously described in Rosier et al.[70] and Bartole et al.[71] with HEK293T-SP-FLAG-hHxR (x = 1, 2, or 4) expressing the respective hHR. […] Data represent mean values ± CI from three independent experiments, each performed in triplicate. The normalized competition binding curves were then fitted with a four-parameter logistic fit yielding IC50 values using Prism 8.4.3 software (GraphPad, SanDiego, CA). The Ki values were estimated from the Cheng–Prusoff equation.[74]

hH1R [5] = target: T3, hH1R (Homo sapiens, UniProt P35367); test: hH1R radioligand binding ([3H]mepyramine); conditions: HEK293T cells; oxalate form
T3 construct: SP (signal peptide) (N); expressed in transfected cells
Procedure: as §1

hH2R = target: T4, hH2R (Homo sapiens, UniProt P25021); test: hH2R radioligand binding ([3H]UR-DE257); conditions: HEK293T cells; oxalate form
T4 construct: SP (signal peptide) (N); expressed in transfected cells
Procedure: as §1

σ1R [6] = target: σ1R (Cavia porcellus, UniProt Q60492); test: σ1R radioligand binding ([3H](+)-pentazocine, brain cortex membranes)
σ2R [7] = target: T5, σ2R (Rattus norvegicus, UniProt Q5U3Y7); test: σ2R radioligand binding ([3H]DTG, liver membranes)
T5 sequence (Q5U3Y7 1-176): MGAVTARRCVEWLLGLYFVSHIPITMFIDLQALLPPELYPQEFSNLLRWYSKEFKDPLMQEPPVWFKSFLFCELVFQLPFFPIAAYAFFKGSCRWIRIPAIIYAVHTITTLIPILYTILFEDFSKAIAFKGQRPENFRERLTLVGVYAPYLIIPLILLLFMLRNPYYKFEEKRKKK

σ1R [8] = test: σ1R radioligand binding ([3H](+)-pentazocine, brain cortex membranes); conditions: σ2R Ki / σ1R Ki (selectivity factor)
[9] = target: T1, human recombinant histamine H3R; conditions: mean [CI 95%]; read-out: hH3R Ki; cited from earlier work
human H3R = target: T6, human H3R (Homo sapiens, UniProt Q9Y5N1); parameters: method as in PMID 33261900; conditions: antagonist mode; read-out: hH3R Kb; cited from earlier work
T6 construct: expressed in transfected cells

hH1R [10] = target: T3, hH1R; parameters: method as in PMID 33261900; conditions: cited from earlier work
[11] = Figure 1, clinically evaluated H3R antagonists, read-out: σ1R Ki
[12] = Table S1, well-known ligands (test set), no reference given, read-out: Exp. σ2 Ki
[13] = exptl Ki σ1, Table 3, given as mean ± spread
[14] = σ1R Ki, mean [CI 95%], [3H](+)-pentazocine
[15] = exptl Ki σ2, Table 3, given as mean ± spread
[16] = σ2R Ki, mean [CI 95%], [3H]DTG with (+)-pentazocine mask
[17] = Table S1, well-known ligands (test set), no reference given, read-out: Exp. σ1 Ki
[18] = mice, ipl 100 μg + loperamide 4 mg/kg sc

σ1R (Cavia porcellus, UniProt Q60492), sequence (Q60492 whole entry): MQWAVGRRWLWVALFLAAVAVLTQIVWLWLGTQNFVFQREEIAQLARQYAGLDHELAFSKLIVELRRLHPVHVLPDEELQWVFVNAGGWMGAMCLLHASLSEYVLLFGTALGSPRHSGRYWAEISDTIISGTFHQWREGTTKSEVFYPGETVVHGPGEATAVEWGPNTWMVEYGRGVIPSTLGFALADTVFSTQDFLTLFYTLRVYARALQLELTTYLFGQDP
T1 sequence (Q9Y5N1 whole entry): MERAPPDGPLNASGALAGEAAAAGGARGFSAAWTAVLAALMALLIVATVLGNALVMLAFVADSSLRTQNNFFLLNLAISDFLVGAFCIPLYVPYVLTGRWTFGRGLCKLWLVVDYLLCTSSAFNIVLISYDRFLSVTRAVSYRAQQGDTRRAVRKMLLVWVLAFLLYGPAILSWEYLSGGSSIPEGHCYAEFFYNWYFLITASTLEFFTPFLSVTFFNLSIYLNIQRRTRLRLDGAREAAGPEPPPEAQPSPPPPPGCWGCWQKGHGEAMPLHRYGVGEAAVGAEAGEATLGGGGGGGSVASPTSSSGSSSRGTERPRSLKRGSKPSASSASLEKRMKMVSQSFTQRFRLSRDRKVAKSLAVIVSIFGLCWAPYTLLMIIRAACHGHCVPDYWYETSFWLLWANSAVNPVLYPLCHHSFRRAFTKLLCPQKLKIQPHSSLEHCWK
T3 sequence (P35367 whole entry): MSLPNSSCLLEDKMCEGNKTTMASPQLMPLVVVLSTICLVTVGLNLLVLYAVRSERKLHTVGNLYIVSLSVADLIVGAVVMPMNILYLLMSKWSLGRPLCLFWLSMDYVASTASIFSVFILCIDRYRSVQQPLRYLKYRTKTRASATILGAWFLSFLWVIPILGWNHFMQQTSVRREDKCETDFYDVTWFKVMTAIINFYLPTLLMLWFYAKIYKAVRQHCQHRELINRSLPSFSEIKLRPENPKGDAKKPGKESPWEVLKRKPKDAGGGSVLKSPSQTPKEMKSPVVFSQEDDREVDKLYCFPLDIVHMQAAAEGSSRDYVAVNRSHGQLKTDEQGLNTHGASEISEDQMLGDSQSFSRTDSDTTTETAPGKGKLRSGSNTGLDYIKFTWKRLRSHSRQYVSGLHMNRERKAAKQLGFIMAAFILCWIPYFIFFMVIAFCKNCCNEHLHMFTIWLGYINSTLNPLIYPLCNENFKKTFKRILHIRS
T4 sequence (P25021 whole entry): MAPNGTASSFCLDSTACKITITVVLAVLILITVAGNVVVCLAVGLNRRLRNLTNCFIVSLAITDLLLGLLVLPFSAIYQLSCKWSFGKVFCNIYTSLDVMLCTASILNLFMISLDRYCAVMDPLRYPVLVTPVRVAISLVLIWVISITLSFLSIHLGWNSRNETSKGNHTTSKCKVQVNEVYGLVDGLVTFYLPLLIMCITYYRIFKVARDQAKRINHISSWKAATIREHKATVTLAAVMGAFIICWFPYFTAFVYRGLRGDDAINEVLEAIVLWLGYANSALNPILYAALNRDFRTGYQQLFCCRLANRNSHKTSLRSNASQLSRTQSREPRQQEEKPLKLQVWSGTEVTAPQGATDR
T6 sequence (Q9Y5N1 whole entry): as the sequence (Q9Y5N1 whole entry) above
T2 sequence (Q9H3N8 whole entry): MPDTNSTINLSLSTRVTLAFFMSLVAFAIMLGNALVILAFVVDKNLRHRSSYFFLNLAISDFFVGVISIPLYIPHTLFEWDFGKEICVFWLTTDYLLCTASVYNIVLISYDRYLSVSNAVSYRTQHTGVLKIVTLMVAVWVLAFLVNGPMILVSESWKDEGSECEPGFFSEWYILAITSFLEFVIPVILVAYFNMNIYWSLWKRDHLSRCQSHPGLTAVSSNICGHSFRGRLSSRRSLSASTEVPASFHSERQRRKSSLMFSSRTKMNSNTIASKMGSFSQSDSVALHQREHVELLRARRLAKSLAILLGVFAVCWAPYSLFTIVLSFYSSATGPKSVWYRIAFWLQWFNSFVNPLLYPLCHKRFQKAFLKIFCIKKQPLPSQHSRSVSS

CN(C)c1ccncc1 [DMAP]
pKa [1]: 9.2

Clc1ccc(CCCOCCCN2CCCCC2)cc1 [PIT, Pitolisant]
EC50 (σ1 receptor): 402 nM | IC50 (σ2R [2]; read-out: σ2R IC50 (binding)): 8.55 nM | agonist activity in σ2 receptor-mediated calcium flux functional assay (σ2 receptor): did not elicit agonist activity | IC50 (σ2 receptor; read-out: IC50, decrease of haloperidol-induced calcium release (antagonist)): 10000 nM

C[C@@H]1CCCN1CCc1cc2cc(-c3ccc(C#N)cc3)ccc2o1 [ABT-239]
Ki (H3R): 15.9 nM | Ki (σ1R [3]; [11]): 6.3 nM

CNC(=O)c1ccc(Oc2ccc3c(c2)CCN(C2CCC2)CC3)nc1 [GSK189254]
Ki (H3R): 1.7 nM | Ki (σ1R [3]; [11]): 240 nM

O=C(OCCN1CCOCC1)C1(c2ccccc2)CCCCC1 [PRE-084, 2-[4-morpholinethyl]1-phenylcyclohexanecarboxylate hydrochloride]
Ki (σ2R [2]; [12]): 13100 nM | Ki (σ2R [2]; reference σ1R ligands, read-out: σ2R Ki): > 10000 nM | Ki [4]: > 10000 nM | effect of coadministration on potentiation of loperamide antinociception by S1RA (female CD1 mice; mice, 75 μg ipl with S1RA, loperamide-treated, identical with 5 or 11): completely abolished the effect of the σ1R antagonist

c1ccc(-c2ccc(OCCCN3CCCCC3)cc2)cc1 [Compound 11]
Ki (hH4R): > 10000 nM | Ki (hH1R [5]): > 10000 nM | Ki (hH2R): > 100000 nM | Ki (σ1R [6]; [13]): 4.41 ± 0.58 nM | Ki (σ1R [6]; [14]): 4.41 nM | functional character at σ1 receptor deduced in vivo (female CD1 mice): σ1 receptor antagonists | effect on loperamide-induced antinociception (female CD1 mice; mice, ipl 50 μg + loperamide 4 mg/kg sc): increased the antinociceptive effect of loperamide at the injected paw | effect alone on struggle response latency to mechanical stimulus (female CD1 mice; mice, ipl 50 μg): did not have any effect per se | Ki (σ2R [7]; [15]): 67.9 ± 7.51 nM | Ki (σ2R [7]; [16]): 68 nM and 67.9 nM

O=C(c1ccccc1)c1ccc(OCCCN2CCCCC2)cc1 [Compound 12]
Ki [4]: 22 nM | σ2/σ1 ratio (σ1R [8]): 6.5 | Ki (σ1R [6]; [13]): 14.8 ± 1.86 nM | Ki (σ1R [6]; [14]): 14.8 nM | Ki (σ2R [7]; [15]): 96.2 ± 14.7 nM | Ki (σ2R [7]; [16]): 96.2 nM

C#CCN(C)Cc1cc2cc(OCCCN3CCCCC3)ccc2n1C [Contilisant]
Ki (σ2R [2]; Figure 1, clinically evaluated H3R antagonists, read-out: σ2R Ki): 326 nM | Ki (H3R): 10.8 nM | Ki (σ1R [3]; [11]): 65.2 nM

CN1CCN(CCc2ccc(Cl)c(Cl)c2)CC1 [BD1063]
Ki (σ1R [3]; [17]): 13.7 nM

Cc1cc(OCCN2CCOCC2)nn1-c1ccc2ccccc2c1 [S1RA, 4-[2-[[5-methyl-1-(2-naphthalenyl)-1H-pyraol-3-yl]oxy]ethyl]morpholine hydrochloride, reference compound]
Ki [4]: > 10000 nM | effect on loperamide-induced antinociception (female CD1 mice; [18]): significantly increased the antinociceptive effect induced by loperamide | effect alone on struggle response latency to mechanical stimulus (female CD1 mice; mice, ipl 100 μg): did not change the response to the mechanical stimulus

COc1cc2c(cc1OC)CN(CCCCNC(=O)c1cc(C)ccc1OCCF)CC2 [F-ISO]
Ki (σ2R [2]; [12]): 6.95 nM | Ki (σ1R [3]; [17]): 330 nM

c1cc(OCCCN2CCCCC2)ccc1CN1CCCCC1 [JNJ-5207852]
Ki (H3R): 0.3 nM | Ki (σ1R [3]; [11]): 1170 nM

CCC(=O)c1ccc(OCCCCCCCCN2CCN(c3ccncc3)CC2)cc1 [Compound 20]
Ki [9]: 38.9 nM | σ2/σ1 ratio (σ1R [8]): 0.2 | Ki (σ1R [6]; [13]): 274 ± 40.4 nM | Ki (σ1R [6]; [14]): 274 nM | Ki (σ2R [7]; [15]): 65.9 ± 11 nM | Ki (σ2R [7]; [16]): 65.9 nM

CC(C(O)c1ccc(O)cc1)N1CCC(Cc2ccccc2)CC1 (stereo not shown) [Ifenprodil]
Ki (σ2R [2]; [12]): 18.8 nM | Ki (σ1R [3]; [17]): 1.02 nM

COOc1c(OC)cc(I)cc1C(=O)NCCCCN1CCc2cc(OC)c(OC)cc2C1 [RHM-4, N-(4-(6,7-Dimethoxy-3,4-dihydroisoquinolin-2(1H)-yl)butyl)-5-iodo-3-methoxy-2-(methylperoxy)benzamide]
Ki (σ2R [2]; read-out: σ2R Ki): 0.26 nM | Ki (σ1R [3]; read-out: σ1R Ki): 2150 nM | σ2/σ1 ratio (σ1R [8]): 0.00012

O=C(c1ccc(OCCCN2CCC(c3ccncc3)CC2)cc1)C1CC1 [Compound 5]
Ki [9]: 8 nM | Kb (human H3R): 18.8 nM | Ki (σ1R [6]; [13]): 3.64 ± 0.74 nM | Ki (σ1R [6]; [14]): 3.64 nM | Ki (hH1R [10]): > 10000 nM | functional character at σ1 receptor deduced in vivo (female CD1 mice): σ1 receptor antagonists | effect on loperamide-induced antinociception (female CD1 mice; [18]): increased the antinociceptive effect of loperamide at the injected paw | effect alone on struggle response latency to mechanical stimulus (female CD1 mice; mice, ipl 100 μg): did not have any effect per se | Ki (σ2R [7]; [15]): 22.4 ± 4.13 nM | Ki (σ2R [7]; [16]): 22 nM and 22.4 nM
